Assay: Stroke statin response (SSR) in the CARE pravastatin trial: pravastatin-treated versus placebo-treated, by SNP genotype
Type: in vivo, human
Details: CARE; for HR: pravastatin vs placebo; for HR (hazard ratio for stroke, pravastatin vs placebo): rs10757274 (hCV26505812), placebo = ref; for EVENTS (number of stroke events): rs10757274, pravastatin arm; for EVENTS: stroke events in pravastatin arm

`CC[C@H](C)C(=O)O[C@H]1C[C@H](O)C=C2C=C[C@H](C)[C@H](CC[C@@H](O)C[C@@H](O)CC(=O)O)[C@H]21` [pravastatin] gave an HR (hCV945276 rs89962 KRT4, DOM, genotype TG + TT, 95% CL 0.48-1.027, p 0.0683) of 0.7, an HR (hCV945276 rs89962 KRT4, GEN, genotype GG, 95% CL 0.349-1.196, p 0.1641) of 0.65 and an HR (hCV945276 rs89962 KRT4, GEN, genotype TG, 95% CL 0.423-0.979, p 0.0397) of 0.64. For the same compound, the HR (hCV945276 rs89962 KRT4, GEN, genotype TT, 95% CL 0.392-2.375, p 0.9381) was 0.96, the HR (hCV945276 rs89962 KRT4, REC, genotype TG + GG, 95% CL 0.458-0.916, p 0.0141) was 0.65 and the HR (hCV1022614 rs220479 ITGAE, DOM, genotype CT + CC, 95% CL 0.541-1.024, p 0.0696) was 0.74. The HR (hCV1022614 rs220479 ITGAE, GEN, genotype CC, 95% CL 0.609-1.295, p 0.5366) was 0.89, the HR (hCV1022614 rs220479 ITGAE, GEN, genotype CT, 95% CL 0.257-0.887, p 0.0192) was 0.48 and the HR (hCV1022614 rs220479 ITGAE, GEN, genotype TT, 95% CL 0.203-4.047, p 0.8969) was 0.91. For the same compound, the HR (hCV1022614 rs220479 ITGAE, REC, genotype CT + TT, 95% CL 0.294-0.921, p 0.0248) was 0.52, the HR (hCV2091644 rs1010 VAMP8, DOM, genotype CT + CC, 95% CL 0.507-1.126, p 0.1678) was 0.76 and the HR (hCV2091644 rs1010 VAMP8, GEN, genotype CC, 95% CL 0.51-2.73, p 0.6997) was 1.18. For the same compound, the HR (hCV2091644 rs1010 VAMP8, GEN, genotype CT, 95% CL 0.418-1.045, p 0.0763) was 0.66, the HR (hCV2091644 rs1010 VAMP8, GEN, genotype TT, 95% CL 0.43-1.186, p 0.1928) was 0.71 and the HR (hCV2091644 rs1010 VAMP8, REC, genotype CT + TT, 95% CL 0.487-0.961, p 0.0284) was 0.68. It also gave an HR (hCV2169762 rs1804689 HPS1, DOM, genotype TG + TT, 95% CL 0.612-1.461, p 0.8004) of 0.95, an HR (hCV2169762 rs1804689 HPS1, GEN, genotype GG, 95% CL 0.372-0.924, p 0.0214) of 0.59 and an HR (hCV2169762 rs1804689 HPS1, GEN, genotype TG, 95% CL 0.583-1.468, p 0.7398) of 0.92. For the same compound, the HR (hCV2169762 rs1804689 HPS1, GEN, genotype TT, 95% CL 0.266-3.694, p 0.9903) was 0.99, the HR (hCV2169762 rs1804689 HPS1, REC, genotype TG + GG, 95% CL 0.529-1.006, p 0.0547) was 0.73 and the HR (hCV2192261 rs3213646 EXOD1, DOM, genotype CT + CC, 95% CL 0.506-1.048, p 0.0882) was 0.73. For the same compound, the HR (hCV2192261 rs3213646 EXOD1, GEN, genotype CC, 95% CL 0.613-1.799, p 0.8592) was 1.05, the HR (hCV2192261 rs3213646 EXOD1, GEN, genotype CT, 95% CL 0.328-0.898, p 0.0175) was 0.54 and the HR (hCV2192261 rs3213646 EXOD1, GEN, genotype TT, 95% CL 0.316-1.278, p 0.2036) was 0.64. It also gave an HR (hCV2192261 rs3213646 EXOD1, REC, genotype CT + TT, 95% CL 0.379-0.857, p 0.007) of 0.57, an HR (hCV7425232 rs3900940 MYH15, DOM, genotype CT + CC, 95% CL 0.468-1.102, p 0.1293) of 0.72 and an HR (hCV7425232 rs3900940 MYH15, GEN, genotype CC, 95% CL 0.461-2.296, p 0.9448) of 1.03. The HR (hCV7425232 rs3900940 MYH15, GEN, genotype CT, 95% CL 0.365-1.022, p 0.0604) was 0.61, the HR (hCV7425232 rs3900940 MYH15, GEN, genotype TT, 95% CL 0.442-1.146, p 0.1618) was 0.71 and the HR (hCV7425232 rs3900940 MYH15, REC, genotype CT + TT, 95% CL 0.467-0.939, p 0.0207) was 0.66. The HR (hCV11450563 rs2038366, DOM, genotype GT + GG, 95% CL 0.567-1.148, p 0.2334) was 0.81, the HR (hCV11450563 rs2038366, GEN, genotype GG, 95% CL 0.669-1.975, p 0.6132) was 1.15 and the HR (hCV11450563 rs2038366, GEN, genotype GT, 95% CL 0.381-0.986, p 0.0436) was 0.61. The HR (hCV11450563 rs2038366, GEN, genotype TT, 95% CL 0.472-2.724, p 0.7789) was 1.13, the HR (hCV11450563 rs2038366, REC, genotype GT + TT, 95% CL 0.463-1.064, p 0.0954) was 0.7 and the “HR (hazard ratio for stroke, pravastatin vs placebo)” value (adjusted (age, male, current smoking, hypertension, diabetes, BMI, baseline LDL, HDL), mode DOM, genotype GA + GG) was 0.73. The “HR (hazard ratio for stroke, pravastatin vs placebo)” value (adjusted (age, male, current smoking, hypertension, diabetes, BMI, baseline LDL, HDL), mode GEN, genotype GA) was 0.61, the “HR (hazard ratio for stroke, pravastatin vs placebo)” value (adjusted (age, male, current smoking, hypertension, diabetes, BMI, baseline LDL, HDL), mode GEN, genotype GG) was 1 and the “HR (hazard ratio for stroke, pravastatin vs placebo)” value (adjusted (age, male, current smoking, hypertension, diabetes, BMI, baseline LDL, HDL), mode REC, genotype GA + AA) was 0.69. For the same compound, the “HR (hazard ratio for stroke, pravastatin vs placebo)” value (unadjusted, mode DOM, genotype AG + AA) was 0.65, the “HR (hazard ratio for stroke, pravastatin vs placebo)” value (unadjusted, mode GEN, genotype AG) was 0.58 and the “HR (hazard ratio for stroke, pravastatin vs placebo)” value (unadjusted, mode GEN, genotype GG) was 0.91. The “HR (hazard ratio for stroke, pravastatin vs placebo)” value (unadjusted, mode REC, genotype AG + GG) was 0.69, the “EVENTS (number of stroke events)” value (adjusted analysis, mode DOM, genotype GA + GG, total 1131) was 54 and the “EVENTS (number of stroke events)” value (adjusted analysis, mode GEN, genotype AA, total 328) was 18. For the same compound, the “EVENTS (number of stroke events)” value (adjusted analysis, mode GEN, genotype GA, total 690) was 29, the “EVENTS (number of stroke events)” value (adjusted analysis, mode GEN, genotype GG, total 441) was 25 and the “EVENTS (number of stroke events)” value (unadjusted, mode DOM, genotype AG + AA, total 981) was 44. The “EVENTS (number of stroke events)” value (unadjusted, mode GEN, genotype AA, total 315) was 17, the “EVENTS (number of stroke events)” value (unadjusted, mode GEN, genotype AG, total 666) was 27 and the “EVENTS (number of stroke events)” value (unadjusted, mode GEN, genotype GG, total 414) was 23. The “EVENTS (number of stroke events)” value (unadjusted, mode REC, genotype AG + GG, total 1080) was 50, the EVENTS (rs1010 VAMP8, DOM, genotype CT + CC, TOTAL 957) was 43 and the EVENTS (rs1010 VAMP8, GEN, genotype CC, TOTAL 271) was 12. The EVENTS (rs1010 VAMP8, GEN, genotype CT, TOTAL 686) was 31, the EVENTS (rs1010 VAMP8, GEN, genotype TT, TOTAL 455) was 26 and the EVENTS (rs1010 VAMP8, REC, genotype CT + TT, TOTAL 1141) was 57. For the same compound, the EVENTS (rs89962 KRT4, DOM, genotype TG + TT, TOTAL 912) was 46, the EVENTS (rs89962 KRT4, GEN, genotype GG, TOTAL 443) was 17 and the EVENTS (rs89962 KRT4, GEN, genotype TG, TOTAL 674) was 37. It also gave an EVENTS (rs89962 KRT4, GEN, genotype TT, TOTAL 238) of 9, an EVENTS (rs89962 KRT4, REC, genotype TG + GG, TOTAL 1117) of 54 and an EVENTS (rs220479 ITGAE, DOM, genotype CT + CC, TOTAL 1381) of 67. It also gave an EVENTS (rs220479 ITGAE, GEN, genotype CC, TOTAL 973) of 52, an EVENTS (rs220479 ITGAE, GEN, genotype CT, TOTAL 408) of 15 and an EVENTS (rs220479 ITGAE, GEN, genotype TT, TOTAL 46) of 3. It also gave an EVENTS (rs220479 ITGAE, REC, genotype CT + TT, TOTAL 454) of 18, an EVENTS (rs1804689 HPS1, DOM, genotype TG + TT, TOTAL 759) of 40 and an EVENTS (rs1804689 HPS1, GEN, genotype GG, TOTAL 668) of 30. It also gave an EVENTS (rs1804689 HPS1, GEN, genotype TG, TOTAL 652) of 36, an EVENTS (rs1804689 HPS1, GEN, genotype TT, TOTAL 107) of 4 and an EVENTS (rs1804689 HPS1, REC, genotype TG + GG, TOTAL 1320) of 66. The EVENTS (rs2038366, DOM, genotype GT + GG, TOTAL 1177) was 57, the EVENTS (rs2038366, GEN, genotype GG, TOTAL 539) was 29 and the EVENTS (rs2038366, GEN, genotype GT, TOTAL 638) was 28. It also gave an EVENTS (rs2038366, GEN, genotype TT, TOTAL 151) of 10.
